Measured values: PubChem BioAssay (NCI)
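Results reflect a 48-hour exposure of cells in 96-well plates to compound at five concentrations. TGI marks complete inhibition of growth.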

What was measured:
Assay in all cases: NCI anticancer screen, dose series, 48 h
[1] = system: NCI/ADR-RES ovarian
[2] = system: HS 578T breast
[3] = system: SF-295 CNS
[4] = system: OVCAR-4 ovarian
[5] = system: SK-OV-3 ovarian
[6] = system: MOLT-4 leukemia
[7] = system: IGROV1 ovarian
[8] = system: SNB-19 CNS
[9] = system: UO-31 renal
[10] = system: NCI-H23 lung
[11] = system: SR leukemia
[12] = system: K-562 leukemia
[13] = system: MDA-N
[14] = system: SK-MEL-5 melanoma
[15] = system: NCI-H226 lung
[16] = system: MALME-3M melanoma
[17] = system: COLO 205 colon
[18] = system: RXF 393 renal
[19] = system: KM12 colon
[20] = system: NCI-H460 lung
[21] = system: PC-3 prostate
[22] = system: SW-620 colon
[23] = system: MDA-MB-231 breast
[24] = system: HCC-2998 colon
[25] = system: SN12C renal
[26] = system: OVCAR-5 ovarian
[27] = system: HOP-92 NSCLC
[28] = system: OVCAR-3 ovarian
[29] = system: LOX IMVI melanoma
[30] = system: TK-10 renal
[31] = system: BT-549 breast
[32] = system: A549 NSCLC
[33] = system: UACC-257 melanoma
[34] = system: RPMI-8226 leukemia
[35] = system: M14 melanoma
[36] = system: HCT-116 colon
[37] = system: MDA-MB-435
[38] = system: HT29 colon
[39] = system: SF-268 CNS
[40] = system: T-47D breast
[41] = system: EKVX NSCLC
[42] = system: OVCAR-8 ovarian
[43] = system: CCRF-CEM leukemia
[44] = system: ACHN renal
[45] = system: SK-MEL-2 melanoma
[46] = system: SF-539 CNS
[47] = system: CAKI-1 renal
[48] = system: UACC-62 melanoma
[49] = system: SK-MEL-28 melanoma
[50] = system: U251 CNS
[51] = system: DU-145 prostate
[52] = system: HOP-62 NSCLC
[53] = system: SNB-75 CNS
[54] = system: MCF7 breast
[55] = system: NCI-H522 lung

With `COc1ccc2c(c1)CCN=C2Cc1cc(OC)c(OC)cc1CCCl` the TGI [1] was > 100 µM, the TGI [2] was 81.7 µM and the TGI [3] was > 100 µM. For the same molecule, the TGI [4] was > 100 µM, the TGI [5] was > 100 µM and the TGI [6] was > 100 µM. For the same molecule, the TGI [7] was > 100 µM, the TGI [8] was > 100 µM and the TGI [9] was > 100 µM. The TGI [10] was > 100 µM, the TGI [11] was > 100 µM and the TGI [12] was > 100 µM. For the same molecule, the TGI [13] was > 100 µM, the TGI [14] was 58.9 µM and the TGI [15] was > 100 µM. The TGI [16] was 73.8 µM, the TGI [17] was > 100 µM and the TGI [18] was 91.4 µM. The TGI [19] was > 100 µM, the TGI [20] was > 100 µM and the TGI [21] was > 100 µM. The TGI [22] was > 100 µM, the TGI [23] was > 100 µM and the TGI [24] was > 100 µM. For the same molecule, the TGI [25] was > 100 µM, the TGI [26] was > 100 µM and the TGI [27] was > 100 µM. The TGI [28] was > 100 µM, the TGI [29] was > 100 µM and the TGI [30] was > 100 µM. For the same molecule, the TGI [31] was > 100 µM, the TGI [32] was > 100 µM and the TGI [33] was > 100 µM. For the same molecule, the TGI [34] was > 100 µM, the TGI [35] was > 100 µM and the TGI [36] was > 100 µM. For the same molecule, the TGI [37] was > 100 µM, the TGI [38] was > 100 µM and the TGI [39] was > 100 µM. The TGI [40] was > 100 µM, the TGI [41] was > 100 µM and the TGI [42] was > 100 µM. For the same molecule, the TGI [43] was > 100 µM, the TGI [44] was > 100 µM and the TGI [45] was > 100 µM. For the same molecule, the TGI [46] was 65.7 µM, the TGI [47] was > 100 µM and the TGI [48] was > 100 µM. For the same molecule, the TGI [49] was > 100 µM, the TGI [50] was > 100 µM and the TGI [51] was > 100 µM. For the same molecule, the TGI [52] was 49.6 µM, the TGI [53] was > 100 µM and the TGI [54] was > 100 µM. It also gave a TGI [55] of 60.1 µM.
